Measurements as given in patent publication US11667652B2, “MCL1 inhibitors” (Gilead Sciences, Inc., priority 2019, dated 2023).

test system: SKBR3 cells; assay: SKBR3 Cell Viability Assay; assay type: cell-based; details: Homo sapiens, SK-BR-3, 72 hours, CellTiter Glo, read-out: MCL1 CV SKBR3 EC50
Procedure: SKBR3 Cell Viability Assay Materials
SKBR3 Cells (ATCC HTB-30) were obtained from ATCC (Manassas, Va.) and cultured in McCoy 5A's medium (ATCC 30-2007)+10% fetal bovine serum (SH30071.03, HyClone, Pittsburgh, Pa.) plus 1× Penicillin-Streptomycin L-glutamine (Corning 30-009-CI, Corning, N.Y.).
The cell viability assay was conducted in a 384-well tissue culture plate (Grenier 781086, Monroe, N.C.) in a total volume of 70 μL. Test compounds were prepared in 1,000×, serially diluted, and pre-spotted into 384-well tissue culture plate by Echo 555 Liquid Handler (Labcyte Inc., San Jose, Calif.). Seventy μL of 6,000 SKBR3 cells were dispensed into each well of the plate and incubated at 37° C. with 5% CO2 for 72 hours. At the end of incubation, 2× CellTiter Glo (CTG) reagents (1 part buffer with 2 parts substrate) (Promega, Madison, Wis.) were prepared, and the plate and the reagent were equilibrated to room temperature for 30 minutes. CTG reagent was added to each plate by Biomek FX at 20 μL/well with 5 times pipetting and mixing to induce cell lysis. Luminescence was read by Envision multimode reader (PerkinElmer). Percent inhibition was calculated as followed: % Inhibition=100%*(Well−Neg)/(Pos−Neg) Neg, negative control, DMSO Pos, positive control, 10 μM Puromycin

| EC50 | Structure (SMILES) |
| --- | --- |
| 9.5 nM | C[C@H]1C/C=C/[C@H](OCCN2CCOCC2)[C@@H]2CC[C@H]2CN2C[C@@]3(CCCc4cc(Cl)ccc43)COc3ccc(cc32)C(=O)N=[S@](=O)(Nc2ncnc3nn(C)cc23)C1 [Example 52] |
| 1060 nM | COc1nn(C)cc1C(=O)N[S@@]1(=O)=NC(=O)c2ccc3c(c2)N(C[C@@H]2CC[C@H]2[C@@H](OC)/C=C/[C@H](Oc2ccncc2)[C@H](C)C1)C[C@@]1(CCCc2cc(Cl)ccc21)CO3 [Example 78] |
| 19.6 nM | CNc1nc(N[S@@]2(=O)=NC(=O)c3ccc4c(c3)N(C[C@@H]3CC[C@H]3[C@@H](OC)/C=C/C[C@H](C)C2)C[C@@]2(CCCc3cc(Cl)ccc32)CO4)c2cn(C)nc2n1 [Example 18] |
| 8140 nM | CO[C@H]1/C=C/C[C@H](C)C[S@@](=O)(Nc2nc(Cl)nc3cn(C)nc23)=NC(=O)c2ccc3c(c2)N(C[C@@H]2CC[C@H]21)C[C@@]1(CCCc2cc(Cl)ccc21)CO3 [Example 16] |

biological target: MCL1/Bim (Homo sapiens (Human), UniProt Q07820); assay: MCL1/Bim Binding AlphaLISA Assay; details: recombinant human 6xHis-MCL1 (171-327), biotinylated Bim peptide (51-76)
Sequence (Q07820 171-327): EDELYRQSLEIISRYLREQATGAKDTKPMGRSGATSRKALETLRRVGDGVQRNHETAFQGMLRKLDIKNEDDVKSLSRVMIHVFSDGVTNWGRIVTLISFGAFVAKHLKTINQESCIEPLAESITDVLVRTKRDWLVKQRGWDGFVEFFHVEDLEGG
Procedure: MCL1/Bim Binding AlphaLISA Assay.
Inhibition of the MCL1 and Bim interaction was measured in the following AlphaLISA assay.
Recombinant human MCL1 protein (C-terminal 6×His Tagged MCL1 containing residues 171-327) was generated at Gilead Sciences, Inc. (Foster City, Calif.). A biotinylated peptide derived from human Bim (residues 51-76) was purchased from CPC Scientific (Sunnyvale, Calif.). (CPC 834113). AlphaLISA anti-6His- acceptor beads (AL128R), AlphaScreen Streptavidin donor beads (6760002B), and Proxiplate-384 Plus (6008289) were purchased from PerkinElmer.
The AlphaLISA assay was performed in a 384-well Proxiplate in a total volume of […]. The reaction mixture contained 0.0625 nM 6×His-MCL1 (171-327), 0.0625 nM biotinylated-Bim peptide, 10 μg/mL AlphaLISA anti-6×His-AlphaLISA acceptor beads, 40 μg/mL AlphaScreen streptavidin donor beads, and serially diluted test compounds in the binding buffer (20 mM Hepes, pH 7.5 (Teknova H1035); 150 mM NaCl (Promega V4221); 0.002% Brij 35 (Thermo Scientific 20150); 1 mM Dithiothreitol (DTT) Solution (Affymetrix 70726); 0.01% BSA (BioLabs B9000S)). 1,000× test compounds were pre-spotted onto 384-well Proxiplate (Labcyte Echo) by Echo 555 Liquid Handler (Labcyte Inc., San Jose, Calif.) followed by incubation of 5 μL MCL1(171-327) for 1 hour. Then 5 μL Bim (51-76) was added and incubated for 2 hours. Five μL AlphaLISA anti-6His-AlphaLISA acceptor beads were then added for 1 hour followed by addition of 5 μL AlphaScreen streptavidin donor beads for 1 hour. The reaction plates were then read on an Envision multimode reader (PerkinElmer) using AlphaScreen settings. Percent inhibition was calculated as shown below: % Inhibition=100%*(Well−Neg)/(Pos−Neg) Neg: negative control, DMSO Pos: positive control, no MCL1 protein, no biotinylated-Bim peptide

| Structure (SMILES) | IC50 |
| --- | --- |
| C[C@H]1C/C=C/[C@H](OCCN2CCOCC2)[C@@H]2CC[C@H]2CN2C[C@@]3(CCCc4cc(Cl)ccc43)COc3ccc(cc32)C(=O)N=[S@](=O)(Nc2ncnc3nn(C)cc23)C1 [Example 52] | 0.081 nM |
| CNc1nc(N[S@@]2(=O)=NC(=O)c3ccc4c(c3)N(C[C@@H]3CC[C@H]3[C@@H](OC)/C=C/C[C@H](C)C2)C[C@@]2(CCCc3cc(Cl)ccc32)CO4)c2cn(C)nc2n1 [Example 18] | 0.042 nM |
| COCCn1cc2c(N[S@@]3(=O)=NC(=O)c4ccc5c(c4)N(C[C@@H]4CC[C@H]4[C@@H](OC)/C=C/C[C@H](C)C3)C[C@@]3(CCCc4cc(Cl)ccc43)CO5)ncnc2n1 [Example 14] | 0.965 nM |
| CO[C@H]1/C=C/C[C@H](C)C[S@@](=O)(Nc2nccc3nn(C)cc23)=NC(=O)c2ccc3c(c2)N(C[C@@H]2CC[C@H]21)C[C@@]1(CCCc2cc(Cl)ccc21)CO3 [Example 7] | 1.74 nM |
| CO[C@H]1/C=C/C[C@H](C)C[S@@](=O)(Nc2ncc(C#N)cn2)=NC(=O)c2ccc3c(c2)N(C[C@@H]2CC[C@H]21)C[C@@]1(CCCc2cc(Cl)ccc21)CO3 [Example 2] | 1.89 nM |
| COc1nn(C)cc1C(=O)N[S@@]1(=O)=NC(=O)c2ccc3c(c2)N(C[C@@H]2CC[C@H]2[C@@H](O)C#CC[C@H](C)C1)C[C@@]1(CCCc2cc(Cl)ccc21)CO3 [Example 35] | 0.043 nM |
| CO[C@H]1/C=C/C[C@H](C)C[S@@](=O)(Nc2nc(O)nc3nn(C)cc23)=NC(=O)c2ccc3c(c2)N(C[C@@H]2CC[C@H]21)C[C@@]1(CCCc2cc(Cl)ccc21)CO3 [Example 11] | 0.183 nM |
| COc1nn(C)cc1C(=O)N[S@@]1(=O)=NC(=O)c2ccc3c(c2)N(C[C@@H]2CC[C@H]2[C@H](OC)C#CC[C@H](C)C1)C[C@@]1(CCCc2cc(Cl)ccc21)CO3 [Example 38] | 0.11 nM |
| CO[C@H]1/C=C/C[C@H](C)C[S@@](=O)(Nc2cccnn2)=NC(=O)c2ccc3c(c2)N(C[C@@H]2CC[C@H]21)C[C@@]1(CCCc2cc(Cl)ccc21)CO3 [Example 13] | 2.12 nM |
| CO[C@H]1/C=C/C[C@H](C)C[S@@](=O)(Nc2ncccn2)=NC(=O)c2ccc3c(c2)N(C[C@@H]2CC[C@H]21)C[C@@]1(CCCc2cc(Cl)ccc21)CO3 [Example 3] | 0.957 nM |
| COc1nn(C)cc1C(=O)N[S@@]1(=O)=NC(=O)c2ccc3c(c2)N(C[C@@H]2CC[C@H]2[C@@H](OCC(O)CO)/C=C/C[C@H](C)C1)C[C@@]1(CCCc2cc(Cl)ccc21)CO3 (mixture of isomers) [Example 57] | 0.089 nM |
| COc1nn(C)cc1C(=O)N[S@@]1(=O)=NC(=O)c2ccc3c(c2)N(C[C@@H]2CC[C@H]2[C@@H](OCCN2CCN(C)CC2)/C=C/C[C@H](C)C1)C[C@@]1(CCCc2cc(Cl)ccc21)CO3 [Example 59] | 0.076 nM |
| COC[C@@H]1CC=C[C@@H](OC)[C@@H]2CC[C@H]2CN2C[C@@]3(CCCc4cc(Cl)ccc43)COc3ccc(cc32)C(=O)N=[S@](=O)(NC(=O)COC2CCOCC2)C1 [Example 44] | 0.648 nM |
| CO[C@H]1CCC[C@H](C)C[S@@](=O)(Nc2ncnc3nn(C)cc23)=NC(=O)c2ccc3c(c2)N(C[C@@H]2CC[C@H]21)C[C@@]1(CCCc2cc(Cl)ccc21)CO3 [Example 28] | 0.12 nM |
| COC[C@H]1C/C=C/[C@H](OC)[C@@H]2CC[C@H]2CN2C[C@@]3(CCCc4cc(Cl)ccc43)COc3ccc(cc32)C(=O)N=[S@@](=O)(NC(=O)COC2CCOCC2)C1 [Example 45] | 0.088 nM |

Further lines, results first:

| IC50 | Structure (SMILES) |
| --- | --- |
| 0.679 nM | COc1nn(C)cc1C(=O)N[S@@]1(=O)=NC(=O)c2ccc3c(c2)N(C[C@@H]2CC[C@H]2[C@@H](OC)/C=C/[C@H](Oc2ccncc2)[C@H](C)C1)C[C@@]1(CCCc2cc(Cl)ccc21)CO3 [Example 78] |
| 0.1 nM | CO[C@H]1/C=C/C[C@H](C)C[S@@](=O)(Nc2ncnc3nn(C)cc23)=NC(=O)c2ccc3c(n2)N(C[C@@H]2CC[C@H]21)C[C@@]1(CCCc2cc(Cl)ccc21)CO3 [Example 194] |
| 0.202 nM | CCCO[C@H]1/C=C/[C@H](OC)[C@@H]2CC[C@H]2CN2C[C@@]3(CCCc4cc(Cl)ccc43)COc3ccc(cc32)C(=O)N=[S@](=O)(NC(=O)c2cn(C)nc2OC)C[C@H]1C [Example 144] |
| 0.09 nM | CO[C@H]1/C=C/C[C@H](C)C[S@@](=O)(NC(=O)NC2CC2)=NC(=O)c2ccc3c(c2)N(C[C@@H]2CC[C@H]21)C[C@]1(CO3)SCCc2cc(Cl)ccc21 [Example 177] |
| 0.059 nM | COc1nn(C)cc1C(=O)N[S@@]1(=O)=NC(=O)c2ccc3c(c2)N(C[C@@H]2CC[C@H]2[C@@H](OC)/C=C/[C@H](F)[C@H](C)C1)C[C@@]1(CCCc2cc(Cl)ccc21)CO3 [Example 127] |
| 0.084 nM | COc1nn(C)cc1C(=O)N[S@@]1(=O)=NC(=O)c2ccc3c(c2)N(C[C@@H]2CC[C@H]2[C@@](C)(O)/C=C/C[C@H](C)C1)C[C@@]1(CCCc2cc(Cl)ccc21)CO3 [Example 94] |
| 2.19 nM | COc1nn(C)cc1C(=O)N[S@@]1(=O)=NC(=O)c2ccc3c(c2)N(C[C@@H]2CC[C@H]2[C@@H](OC(=O)c2cn(C)nc2OC)CC[C@H](O)[C@H](C)[C@H]1C)C[C@@]1(CCCc2cc(Cl)ccc21)CO3 [Example 90] |
| 0.06 nM | CO[C@H]1/C=C/CCC[S@@](=O)(NC(=O)c2cnn(C)c2)=NC(=O)c2ccc3c(c2)N(C[C@@H]2CC[C@H]21)C[C@]1(CO3)SCCc2cc(Cl)ccc21 [Example 182] |
| 0.53 nM | COc1nn(C)cc1C(=O)N[S@@]1(=O)=NC(=O)c2ccc3c(c2)N(C[C@@H]2CC[C@H]2[C@@H](OC(=O)c2cn(C)nc2OC)/C=C/[C@H](O)[C@H](C)[C@H]1C)C[C@@]1(CCCc2cc(Cl)ccc21)CO3 [Example 89] |
| 0.06 nM | CO[C@H]1/C=C/[C@H](OC)[C@H](C)C[S@@](=O)(Nc2ncnc3nn(C)cc23)=NC(=O)c2ccc3c(c2)N(C[C@@H]2CC[C@H]21)C[C@@]1(CCCc2cc(Cl)ccc21)CO3 [Example 67] |
| 0.562 nM | COc1nn(C)cc1C(=O)N[S@@]1(=O)=NC(=O)c2ccc3c(c2)N(C[C@@H]2CC[C@H]2[C@@H](OC)C/C=C\[C@H](C)C1)C[C@@]1(CCCc2cc(Cl)ccc21)CO3 (mixture of isomers) [Example 128] |
| 0.176 nM | CO[C@H]1/C=C/C[C@H](C)[C@@H](C)[S@@](=O)(NC(=O)c2cnn(C)c2)=NC(=O)c2ccc3c(c2)N(C[C@@H]2CC[C@H]21)C[C@]1(CO3)C[C@@H]2C[C@@H]2c2cc(Cl)ccc21 [Example 171] |
| 0.13 nM | COc1nn(C)cc1C(=O)N[S@@]1(=O)=NC(=O)c2ccc3c(c2)N(C[C@@H]2CC[C@H]2[C@H](OC)[C@H](O)[C@@H](O)C[C@H](C)C1)C[C@@]1(CCCc2cc(Cl)ccc21)CO3 [Example 126] |
| 0.17 nM | CCn1cc(C(=O)N[S@@]2(=O)=NC(=O)c3ccc4c(n3)N(C[C@@H]3CC[C@H]3[C@@H](OC)/C=C/C[C@H](C)[C@H]2C)C[C@@]2(CCCc3cc(Cl)ccc32)CO4)cn1 [Example 199] |
| 0.051 nM | COc1nn(C)cc1C(=O)N[S@@]1(=O)=NC(=O)c2ccc3c(c2)N(C[C@@H]2CC[C@H]2[C@@H](OC)[C@H](O)[C@@H](O)C[C@H](C)C1)C[C@@]1(CCCc2cc(Cl)ccc21)CO3 [Example 125] |
| 0.036 nM | COc1nn(C)cc1C(=O)N[S@@]1(=O)=NC(=O)c2ccc3c(c2)N(C[C@@H]2CC[C@H]2[C@](O)(CC(=O)N2CC(N4CCOCC4)C2)/C=C/C[C@H](C)C1)C[C@@]1(CCCc2cc(Cl)ccc21)CO3 [Example 107] |
| 0.2 nM | CO[C@H]1/C=C/C[C@H](C)[C@@H](C)[S@@](=O)(NC(=O)c2cc3n(c2)CCOC3)=NC(=O)c2ccc3c(n2)N(C[C@@H]2CC[C@H]21)C[C@@]1(CCCc2cc(Cl)ccc21)CO3 [Example 202] |
